In patent publication US10626368B2, “Method for inducing cerebral cortex neurons” (KYOTO UNIVERSITY, priority 2015, dated 2020):

Key:
Format in all cases: cell-based, human
[1] = tested on: ES cells or the iPS cells; experiment: Immunostaining for CoupTF1 and Ctip2 after 46 days of cerebral cortex differentiation
From the text: (§1) Human ES cells (KhES-1) were obtained from Institute for Frontier Medical Sciences, Kyoto University (Suemori H, et al. Biochem Biophys Res Commun. 345: 926-32, 2006). The human iPS cells 404C2 are cells obtained by introducing Oct3/4, Sox2, Klf4, L-MYC, LIN28 and p53shRNA into human fibroblasts, using an episomal vector, and these cells were obtained from Professor Yamanaka et al. in Kyoto University (Okita, et al, Nat Methods. 8: 409-412, 2011). The human iPS cells 836B1 are cells obtained by introducing Oct3/4, Sox2, Klf4, L-MYC, LIN28, GLIS1 and p53shRNA into human fibroblasts, using an episomal vector, and these cells were obtained from Professor Yamanaka et al. in Kyoto University. The ES cells and the iPS cells were cultured on SNL cells (Takahashi K, et al, Cell. 131: 861-872, 2007).
On the day before induction of differentiation, in order to separate the ES cells or the iPS cells, which had been cultured in a culture medium to which 10 μM Y-27632 (WAKO) had been added, from the SNL feeder cells, the SNL cells were removed with CTK and the remaining cells were then dissociated using Accumax (ICT). The cells were transferred on a 96-well plate (Lipidure-coat 96-well plate (NOF Corporation)) in an amount of 9×10^3 cells per well. Thereafter, the cells were subjected to a suspension culture in DMEM/F12 (WAKO) comprising 50 μM Y-27632 (WAKO), 10 μM SB43152 (Sigma), 10 ng/ml bFGF (Invitrogen), various types of Wnt inhibitors (DKK1 (R & D, 500 ng/ml), C59 (Cellagen Technology, 2-10 nM), XAV (Stemgent, 500 nM-2 μM) or IWP4 (Stemgent, 500 nM-2.5 μM)), LDN193189 (Stemgent), KSR (Invitrogen), 0.1 mM MEM non-essential amino acid (Invitrogen), 0.1 mM 2-mercaptoethanol (WAKO), and 2 mM L-Gln (Invitrogen) (initiation of differentiation induction, day 0). […]
The concentration of LDN193189 used in the above-described induction method was examined. […] Furthermore, the expression levels of the CoupTF1 and Sfrp1 genes were measured according to a qPCR method (FIG. 5C). […]

[2] = tested on: ES cells or the iPS cells; experiment: Cell death / cytotoxicity in spheres on the 18th day of the culture; details: 2 μM LDN193189, 18th day of the culture
Experimental: On the day before induction of differentiation, in order to separate the ES cells or the iPS cells, which had been cultured in a culture medium to which 10 μM Y-27632 (WAKO) had been added, from the SNL feeder cells, the SNL cells were removed with CTK and the remaining cells were then dissociated using Accumax (ICT). The cells were transferred on a 96-well plate (Lipidure-coat 96-well plate (NOF Corporation)) in an amount of 9×10^3 cells per well. Thereafter, the cells were subjected to a suspension culture in DMEM/F12 (WAKO) comprising 50 μM Y-27632 (WAKO), 10 μM SB43152 (Sigma), 10 ng/ml bFGF (Invitrogen), various types of Wnt inhibitors (DKK1 (R & D, 500 ng/ml), C59 (Cellagen Technology, 2-10 nM), XAV (Stemgent, 500 nM-2 μM) or IWP4 (Stemgent, 500 nM-2.5 μM)), LDN193189 (Stemgent), KSR (Invitrogen), 0.1 mM MEM non-essential amino acid (Invitrogen), 0.1 mM 2-mercaptoethanol (WAKO), and 2 mM L-Gln (Invitrogen) (initiation of differentiation induction, day 0). […] Three days later, the medium was exchanged with DMEM/F12 (WAKO) comprising various types of Wnt inhibitors (DKK1, C59, XAV or IWP4 (Stemgent)), LDN193189 (Stemgent), KSR (Invitrogen), 0.1 mM MEM non-essential amino acid (Invitrogen), 0.1 mM 2-mercaptoethanol (WAKO), and 2 mM L-Gln (Invitrogen) (day 6). […]

[3] = tested on: ES cells or the iPS cells; experiment: qPCR of marker gene expression in cells differentiated with added inhibitors
From the text: as §1
On the day before induction of differentiation, in order to separate the ES cells or the iPS cells, which had been cultured in a culture medium to which 10 μM Y-27632 (WAKO) had been added, from the SNL feeder cells, the SNL cells were removed with CTK and the remaining cells were then dissociated using Accumax (ICT). The cells were transferred on a 96-well plate (Lipidure-coat 96-well plate (NOF Corporation)) in an amount of 9×10^3 cells per well. Thereafter, the cells were subjected to a suspension culture in DMEM/F12 (WAKO) comprising 50 μM Y-27632 (WAKO), 10 μM SB43152 (Sigma), 10 ng/ml bFGF (Invitrogen), various types of Wnt inhibitors (DKK1 (R & D, 500 ng/ml), C59 (Cellagen Technology, 2-10 nM), XAV (Stemgent, 500 nM-2 μM) or IWP4 (Stemgent, 500 nM-2.5 μM)), LDN193189 (Stemgent), KSR (Invitrogen), 0.1 mM MEM non-essential amino acid (Invitrogen), 0.1 mM 2-mercaptoethanol (WAKO), and 2 mM L-Gln (Invitrogen) (initiation of differentiation induction, day 0). […] Three days later, the medium was exchanged with DMEM/F12 (WAKO) comprising various types of Wnt inhibitors (DKK1, C59, XAV or IWP4 (Stemgent)), LDN193189 (Stemgent), KSR (Invitrogen), 0.1 mM MEM non-essential amino acid (Invitrogen), 0.1 mM 2-mercaptoethanol (WAKO), and 2 mM L-Gln (Invitrogen) (day 6). Thereafter, the medium was exchanged with a fresh one of the same type every 3 days, and the culture was carried out for 18 days after the initiation of differentiation induction (day 18).
The obtained cell mass was transferred on a dish (24-well plate (BD)) coated with 50 μg/ml ornithine (Sigma), 5 μg/ml laminin (Sigma) and 5 μg/ml fibronectin (BD Bioscience Pharmingen), and the culture was continued in Neurobasal (Invitrogen), to which B27 (Invitrogen), 2 mM L-Gln, and 10 units/ml penicillin and streptomycin (Invitrogen) had been added. The culture was carried out for, at maximum, 46 days after the initiation of differentiation induction. It is to be noted that the medium was exchanged with a fresh one every 2 or 3 days.
In the above-described induction method, 500 ng/ml DKK1, 2 nM C59, 500 nM XAV or 500 nM IWP4 was added as a Wnt inhibitor to the cells, and the obtained mixture was then cultured for 18 days. Thereafter, the expression levels of Six3 (forebrain marker), Sox1 (neuroectodermal marker), Foxg1 (cerebral cortex-forming factor), Lhx2 (cerebral cortex-forming factor), Emx2 (forebrain back portion marker), CoupTF1 (forebrain back portion marker) and Pax6 (forebrain front portion marker) genes in the cultured cells were measured by a qPCR method (FIG. 2).
The concentration of C59 used as a Wnt inhibitor in the above-described induction method was examined. Specifically, without using C59, or using 2.5 nM, 10 nM and 1 μM C59, the cells were cultured for 18 days. […] The obtained spheres were subjected to immunostaining of using an antibody against Pax6. […] Furthermore, the expression levels of the Foxg1, Lhx2, Emx2 and CoupTF1 genes in the obtained spheres were measured according to a qPCR method (FIG. 4B). As a result, the expression level of CoupTF1 was low and the expression levels of Lhx2 and Foxg1 were high in the case of using 10 nM C59. […]

iPS cells (836B1) = experiment: Immunostaining for CoupTF1 and Ctip2 on day 46, suspension culture with various WNT inhibitors (Example 4); details: 50 nM C59, 100 nM LGK-974, 1 μM ICG-001, day 46; C59 and LGK-974 compared with each other
Experimental: On the day before induction of differentiation, in order to separate the iPS cells (836B1), which had been cultured in a culture medium to which 10 μM Y-27632 had been added, from the SNL feeder cells, the SNL cells were removed with CTK and the remaining cells were then dissociated using Accumax. The cells were transferred on a 96-well plate (Lipidure-coat 96-well plate) in an amount of 9×10^3 cells per well. Thereafter, the cells were subjected to a suspension culture in DMEM/F12 comprising 50 μM Y-27632, 10 μM SB43152, 10 ng/ml bFGF, various types of Wnt inhibitors (50 nM C59, 100 nM LGK-974, or 1 μM ICG-001 (Cellagen Technology)), 100 nM LDN193189, 10% KSR, 0.1 mM MEM non-essential amino acid, 0.1 mM 2-mercaptoethanol, and 2 mM L-Gln (initiation of differentiation induction, day 0). […] Three days later, the medium was exchanged with DMEM/F12 comprising various types of WNT inhibitors (C59, LGK-974, or ICG-001), 100 nM LDN193189, 10% KSR, 0.1 mM MEM non-essential amino acid, 0.1 mM 2-mercaptoethanol, and 2 mM L-Gln (day 6). Thereafter, the medium was exchanged with a fresh one of the same type every 3 days, and the culture was carried out for 18 days after the initiation of differentiation induction (day 18).
A half of the medium on day 18 was removed by aspiration, and thereafter, Neurobasal, to which B27, 2 mM L-Gln, and 10 units/ml penicillin and streptomycin had been added, was added in the same amount as the removed medium to the remaining medium. Likewise, a half amount of the medium was exchanged on day 21. On day 24, the cells were transferred on a petri dish, and thereafter, a half of the medium was exchanged every 3 or 4 days. On day 46, the obtained cells were immunostained using antibodies against CoupTF1 and Ctip2. […] From the aforementioned results, it was confirmed that nerve cells existing in the desired corticocerebral motor area can be induced even by utilizing the WNT inhibitor LGK-974 having a similar action to C59.

[4] = 0.1 μM, 0.5 μM and 2 μM LDN193189, 46 days, qPCR, in a concentration-dependent manner
[5] = 500 ng/ml DKK1 as Wnt inhibitor, cultured for 18 days, qPCR

**Q.** Which “CoupTF1-negative Ctip2-positive cells” value ([1]; 0.1 μM, 0.5 μM and 2 μM LDN193189, 46 days) does the source give for `c1ccc2c(-c3cnn4cc(-c5ccc(N6CCNCC6)cc5)cnc34)ccnc2c1` [LDN193189, 4-(6-(4-(piperazin-1-yl)phenyl)pyrazolo [1,5-a]pyrimidin-3-yl)quinoline] here?
**A.** obtained in a concentration-dependent manner

**Q.** What about the “cell death in spheres” value [2] of the same molecule?
**A.** cell death was often found

**Q.** What about the cytotoxicity [2] of the same molecule?
**A.** strongly appeared

**Q.** And the “expression level of CoupTF1” value [3, 4]?
**A.** low

**Q.** And the “expression level of Sfrp1” value [3, 4]?
**A.** high

**Q.** For `O=C1[C@H](Cc2ccc(O)cc2)N2C(=O)CCN(C(=O)NCc3ccccc3)[C@H]2CN1Cc1cccc2ccccc12` [ICG-001], which “efficiency of inducing CoupTF1-negative Ctip2-positive cells” value (iPS cells (836B1)) is on record?
**A.** significantly low

**Q.** Which “efficiency of inducing CoupTF1-negative Ctip2-positive cells” value (iPS cells (836B1)) does the source give for `Cc1cc(-c2ncc(CC(=O)Nc3ccc(-c4cnccn4)cn3)cc2C)ccn1` [LGK-974] here?
**A.** not found a large difference

**Q.** SB431542 was tested. Which “CoupTF1-negative Ctip2-positive cells” value ([1]; 10 μM SB43152 as TGFβ inhibitor, 46 days) did it give?
**A.** obtained

B1: DKK1: DKK1 protein, Wnt inhibitor (human NCBI Accession No. NM_012242), R & D (protein, UniProt O94907 32-266, looked up)
Dickkopf-related protein 1: TLNSVLNSNAIKNLPPPLGGAAGHPGSAVSAAPGILYPGGNKYQTIDNYQPYPCAEDEECGTDEYCASPTRGGDAGVQICLACRKRRKRCMRHAMCCPGNYCKNGICVSSDQNHFRGEIEETITESFGNDHSTLDGYSRRTTLSSKMYHTKGQEGSVCLRSSDCASGLCCARHFWSKICKPVLKEGQVCTKHRRKGSHGLEIFQRCYCGEGLSCRIQKDHHQASNSSRLHTCQRH
**Q.** Which “cells in the back portion of the forebrain induced” value ([3]; 500 ng/ml DKK1 as Wnt inhibitor, cultured for 18 days) does the source give for B1 here?
**A.** a large number

**Q.** And the “expression level of CoupTF1 (forebrain back portion marker)” value [3, 5]?
**A.** high

**Q.** And the “expression level of Emx2 (forebrain back portion marker)” value [3, 5]?
**A.** high
